{"source": "patent US12459985B2", "about": "“G-protein-coupled receptor internal sensors” (THE REGENTS OF THE UNIVERSITY OF CALIFORNIA, priority 2016, dated 2025)", "key": {"Mu-opioid receptor": {"system": "Mu-opioid receptor", "assay": "Opioid sensor (cpGFP in Loop3 of the Mu-opioid receptor) response in HEK293T cells", "assay_type": "cell-based, human"}, "[1]": {"molecular_target": "Beta2AR with a cpGFP integrated into the third intracellular loop (Homo sapiens, UniProt P07550)"}, "5HT2A receptor": {"molecular_target": "5HT2A receptor (Homo sapiens, UniProt P28223, DEL264-288/DEL297-315/INS291[…]/INS295[…]/K293E/S316L)", "sequence (P28223 with tags, fused parts or gaps with the stated changes)": "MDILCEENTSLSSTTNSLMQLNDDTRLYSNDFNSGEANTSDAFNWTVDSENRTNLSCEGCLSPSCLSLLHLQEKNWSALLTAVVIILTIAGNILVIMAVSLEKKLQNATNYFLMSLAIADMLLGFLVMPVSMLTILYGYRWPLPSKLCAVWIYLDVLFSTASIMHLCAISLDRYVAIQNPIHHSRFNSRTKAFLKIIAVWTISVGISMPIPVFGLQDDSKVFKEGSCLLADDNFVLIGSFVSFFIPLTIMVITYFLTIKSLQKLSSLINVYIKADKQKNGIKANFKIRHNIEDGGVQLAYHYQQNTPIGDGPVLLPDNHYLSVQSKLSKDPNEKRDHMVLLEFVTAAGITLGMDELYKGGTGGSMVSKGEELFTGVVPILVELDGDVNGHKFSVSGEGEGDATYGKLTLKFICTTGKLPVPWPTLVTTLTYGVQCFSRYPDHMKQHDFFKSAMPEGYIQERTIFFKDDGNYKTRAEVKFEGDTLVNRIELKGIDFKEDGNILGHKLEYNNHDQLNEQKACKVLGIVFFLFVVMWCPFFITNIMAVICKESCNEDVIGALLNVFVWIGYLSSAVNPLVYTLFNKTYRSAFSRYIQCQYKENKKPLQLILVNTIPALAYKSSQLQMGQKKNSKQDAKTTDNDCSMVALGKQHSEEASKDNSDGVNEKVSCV", "assay": "5HT2A receptor sensor with universal module 2, fluorescence response", "assay_type": "cell-based", "details": "universal module 2 in 5HT2A receptor"}, "B2AR [2]": {"molecular_target": "T1, B2AR (Homo sapiens, UniProt P07550, C265Q/D251A/E249T/E27Q/F240D/F264D/G16R/G238K/G257K/INS236[…]/INS254[…]/K235L/K263H/N244L/Q243V/Q247F/Q250A/R253I/R259E/R260Y/S246E/S261N/S262N/V242M)", "T1 construct": "expressed in transfected cells", "assay_type": "cell-based", "details": "universal module 1 in B2AR; 10 μM"}, "B2AR [3]": {"molecular_target": "B2AR (Homo sapiens, UniProt P07550, C265Q/D251A/E249T/E27Q/F240D/F264D/G16R/G238K/G257K/INS233[…]/INS254[…]/K232L/K235P/K263H/L230S/N244L/Q229L/Q231S/Q243V/Q247F/Q250A/R253I/R259E/R260Y/S236N/S246E/S261N/S262N/V242M)", "assay": "B2AR sensor with universal module 2, fluorescence response", "assay_type": "cell-based", "details": "inserted into EAKR-deleted third intracellular loop residues-KEHK of B2AR"}}}
{"compound": "NCCc1ccc(O)c(O)c1", "note": "[Dopamine]", "values": [{"measurement": "specific response of the sensor", "setting": "[1]; 50 μM, non-Beta2AR ligands", "value": "did not detect any specific response"}]}
{"compound": "NCCc1c[nH]c2ccc(O)cc12", "note": "[Serotonin]", "values": [{"measurement": "ΔF/F response", "setting": "5HT2A receptor", "value": "~30", "unit": "%"}]}
{"compound": "NC[C@H](O)c1ccc(O)c(O)c1", "note": "[norepinephrine]", "values": [{"measurement": "ΔF/F", "setting": "B2AR [2]", "value": 150, "unit": "%"}, {"measurement": "τ½ON", "setting": "[1]; time constant of association, saturating conditions (1 μM drug)", "value": 29.62, "unit": "s"}, {"measurement": "τ½OFF", "setting": "[1]; time constant of dissociation, saturating conditions (1 μM drug)", "value": 106.91, "unit": "s"}]}
{"compound": "LSSLI-cpGFP-NHDQL [Universal module 2]", "values": [{"measurement": "ΔF/F", "setting": "B2AR [3]", "value": 100, "unit": "%"}]}
